Data on 1 substance can be found in US20070078109A1, “Compositions and methods used to treat acne and candida” (priority 2004, published 2007).

The test system of experiment [1] is acne. Conditions: 4% active AGP formula; in less than 48 hours.
The test system of experiment [2] is Escherichia coli. Conditions: at low concentration.
The subject of experiment [3] is P. acnes and various pathogenic candida. The settings on record: including against resistant pathogenic strains.
Experiment [4] deals with Staphyloccocus aureus. The settings on record: at low concentration.
In experiment [5] the test system is P. acnes. Conditions: complete inhibition.
The test system of experiment [6] is C. albicans isolates, including one fluconazole-resistant strain. Conditions: AGP at 0.25% topical, 1-7 days, cyclophosphamide-immunosuppressed animals; compared with 2% miconazole. The method, then:
Pre-clinical studies with three C. albicans isolates, including one fluconazole-resistant strain, were performed using immunosuppressed animals with cyclophosphamide.

Take “N-acetylglucoseamine (AGA)-glucosamine (GA)-pyrithione (PR) [AGP]”: the “results in acne patients” value in experiment [1] is listed as “remarkable results”. Moreover, the “activity toward Escherichia coli” value in experiment [2] was “active”. Further, the bactericidal activity result in experiment [3] is given as “excellent bactericidal activity”. The “activity toward Staphyloccocus aureus” value in experiment [4] is “active”. In experiment [5], the “concentration that completely inhibited P. acnes” value is “less than 0.1 mg/mL”. For the same substance, the clearing the infection entry in experiment [6] is “equivalent in clearing the infection as 2% miconazole”.
